The results in this text go back to US20050282743A1, “Molecular interactions in cells” (Arbor Vita Corporation, priority 2001, published 2005).

Peptide text beside a SMILES is read from it. * marks the point of attachment. Biotin = O=C1N[C@H]2[C@H](CS[C@H]2CCCCC(=O)*)N1

Holding throughout (experiment): G' assay (10 uM PL peptide), results of TABLE 7 and TABLE 12
Holding throughout (format): binding

The target in assay [1] is T1, PDZ protein (GST-PDZ fusion) (Homo sapiens, UniProt Q9C0E4).
T1 construct: made in house; host or cells: E. coli (DH5alpha, BL21 or JM109)
T1 sequence (Q9C0E4 whole entry, the tested form may be a part): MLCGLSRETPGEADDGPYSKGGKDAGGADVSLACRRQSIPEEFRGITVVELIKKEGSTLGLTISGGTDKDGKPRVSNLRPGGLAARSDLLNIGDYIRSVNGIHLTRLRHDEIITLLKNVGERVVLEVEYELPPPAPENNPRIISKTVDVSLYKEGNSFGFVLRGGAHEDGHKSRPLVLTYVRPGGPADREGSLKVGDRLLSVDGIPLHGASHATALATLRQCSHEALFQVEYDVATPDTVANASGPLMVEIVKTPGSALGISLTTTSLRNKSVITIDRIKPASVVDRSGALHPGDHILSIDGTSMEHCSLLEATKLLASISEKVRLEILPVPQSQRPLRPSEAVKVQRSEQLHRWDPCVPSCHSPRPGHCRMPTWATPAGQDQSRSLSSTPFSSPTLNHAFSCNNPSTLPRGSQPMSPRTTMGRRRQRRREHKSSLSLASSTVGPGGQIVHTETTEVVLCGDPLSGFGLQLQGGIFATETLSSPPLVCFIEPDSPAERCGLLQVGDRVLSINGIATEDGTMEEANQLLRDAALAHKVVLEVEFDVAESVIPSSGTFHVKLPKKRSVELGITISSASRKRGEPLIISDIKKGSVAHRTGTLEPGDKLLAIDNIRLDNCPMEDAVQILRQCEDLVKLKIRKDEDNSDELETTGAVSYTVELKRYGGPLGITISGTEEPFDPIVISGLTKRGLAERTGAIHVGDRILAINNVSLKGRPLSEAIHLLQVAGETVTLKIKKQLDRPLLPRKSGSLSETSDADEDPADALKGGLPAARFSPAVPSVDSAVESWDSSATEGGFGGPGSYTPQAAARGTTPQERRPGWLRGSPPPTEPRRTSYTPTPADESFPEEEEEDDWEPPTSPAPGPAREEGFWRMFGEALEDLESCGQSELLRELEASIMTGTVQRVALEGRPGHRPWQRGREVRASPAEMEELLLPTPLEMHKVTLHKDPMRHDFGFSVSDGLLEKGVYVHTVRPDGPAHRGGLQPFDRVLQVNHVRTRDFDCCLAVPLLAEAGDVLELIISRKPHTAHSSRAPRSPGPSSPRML
To be noted: PDZ KIAA1719, PDZ Domain 5. The method, boiled down: (§1)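 Biotin-PL peptide (N-term label), 10 uM vs GST-PDZ; protein 5 ug/ml by default. A450 nm binned: 1 = 0-1, 2 = 1-2, 3 = 2-3, 4 = 3-4, 5 = >4 on >2 repeats, 0 = no binding.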

Assay [2] addresses T2, PDZ protein (GST-PDZ fusion) (Homo sapiens, UniProt Q13424).
T2 construct: made in house; host or cells: E. coli (DH5alpha, BL21 or JM109)
T2 sequence (Q13424 1-505): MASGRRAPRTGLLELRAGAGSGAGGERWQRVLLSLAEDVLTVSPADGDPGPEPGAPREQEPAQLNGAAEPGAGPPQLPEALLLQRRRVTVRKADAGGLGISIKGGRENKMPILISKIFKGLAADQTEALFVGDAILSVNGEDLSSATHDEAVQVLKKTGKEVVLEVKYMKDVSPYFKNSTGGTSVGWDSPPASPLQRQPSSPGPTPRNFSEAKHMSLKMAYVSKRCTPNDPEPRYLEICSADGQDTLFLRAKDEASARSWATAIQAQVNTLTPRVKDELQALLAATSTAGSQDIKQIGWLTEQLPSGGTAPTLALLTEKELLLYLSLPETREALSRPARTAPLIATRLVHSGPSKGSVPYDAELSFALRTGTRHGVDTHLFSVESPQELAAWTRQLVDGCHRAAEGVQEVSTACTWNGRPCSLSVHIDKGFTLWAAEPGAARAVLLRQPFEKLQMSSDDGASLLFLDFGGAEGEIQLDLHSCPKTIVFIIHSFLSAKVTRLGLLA
To be noted: PDZ Synt. 1 alpha, PDZ Domain 1. The method, boiled down:
as §1

Assay [3] addresses T3, PDZ protein (GST-PDZ fusion) (Homo sapiens, UniProt Q96RT1).
T3 construct: made in house; host or cells: E. coli (DH5alpha, BL21 or JM109)
To be noted: PDZ Erbin, PDZ Domain 1. In short, it runs like this:
as §1

For assay [4], the target named is T4, PDZ protein (GST-PDZ fusion) (Homo sapiens, UniProt Q9Y2H9).
T4 construct: made in house; host or cells: E. coli (DH5alpha, BL21 or JM109)
T4 sequence (Q9Y2H9 whole entry, the tested form may be a part): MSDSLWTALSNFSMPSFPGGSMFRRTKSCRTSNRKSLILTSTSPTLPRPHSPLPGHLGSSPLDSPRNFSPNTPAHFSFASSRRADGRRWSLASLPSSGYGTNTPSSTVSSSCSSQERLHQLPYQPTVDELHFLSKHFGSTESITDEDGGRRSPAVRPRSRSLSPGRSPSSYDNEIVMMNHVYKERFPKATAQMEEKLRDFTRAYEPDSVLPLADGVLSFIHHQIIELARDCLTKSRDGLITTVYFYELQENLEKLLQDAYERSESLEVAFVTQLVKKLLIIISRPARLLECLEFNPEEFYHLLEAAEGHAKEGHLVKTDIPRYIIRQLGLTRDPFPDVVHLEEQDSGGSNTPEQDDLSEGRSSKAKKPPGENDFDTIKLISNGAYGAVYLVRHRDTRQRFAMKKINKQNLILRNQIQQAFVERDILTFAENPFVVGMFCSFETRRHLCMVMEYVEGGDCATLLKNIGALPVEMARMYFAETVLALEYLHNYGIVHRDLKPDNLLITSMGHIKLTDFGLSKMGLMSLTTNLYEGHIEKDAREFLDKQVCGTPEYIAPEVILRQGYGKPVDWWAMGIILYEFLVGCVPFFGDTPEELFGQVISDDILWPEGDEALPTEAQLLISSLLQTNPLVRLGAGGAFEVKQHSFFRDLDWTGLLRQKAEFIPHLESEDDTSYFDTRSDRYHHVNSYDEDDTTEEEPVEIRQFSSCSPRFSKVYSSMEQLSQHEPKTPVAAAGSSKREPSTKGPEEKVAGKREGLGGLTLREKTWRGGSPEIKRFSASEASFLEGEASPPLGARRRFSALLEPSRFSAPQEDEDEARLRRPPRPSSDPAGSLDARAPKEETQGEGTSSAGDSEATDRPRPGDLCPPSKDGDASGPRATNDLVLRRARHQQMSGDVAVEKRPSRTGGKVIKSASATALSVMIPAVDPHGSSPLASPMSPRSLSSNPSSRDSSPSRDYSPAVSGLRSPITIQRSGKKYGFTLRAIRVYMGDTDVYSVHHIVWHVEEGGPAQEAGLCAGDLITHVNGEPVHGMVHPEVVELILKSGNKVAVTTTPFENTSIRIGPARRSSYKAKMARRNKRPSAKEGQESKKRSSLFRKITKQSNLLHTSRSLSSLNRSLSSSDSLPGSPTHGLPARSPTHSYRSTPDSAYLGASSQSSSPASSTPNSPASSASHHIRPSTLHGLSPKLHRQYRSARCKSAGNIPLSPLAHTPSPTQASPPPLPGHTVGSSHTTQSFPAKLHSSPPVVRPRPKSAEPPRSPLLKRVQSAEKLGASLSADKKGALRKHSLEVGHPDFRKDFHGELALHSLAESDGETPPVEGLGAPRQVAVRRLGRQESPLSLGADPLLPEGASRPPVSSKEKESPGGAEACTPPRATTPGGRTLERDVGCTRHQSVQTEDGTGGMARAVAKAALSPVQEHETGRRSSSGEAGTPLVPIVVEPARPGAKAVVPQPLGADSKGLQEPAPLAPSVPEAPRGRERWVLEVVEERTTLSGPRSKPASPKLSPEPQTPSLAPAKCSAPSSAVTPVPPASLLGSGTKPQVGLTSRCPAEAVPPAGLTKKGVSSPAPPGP
Conditions: PDZ KIAA0973, PDZ Domain 1. In short, it runs like this:
as §1

T3 sequence (Q96RT1 whole entry, the tested form may be a part): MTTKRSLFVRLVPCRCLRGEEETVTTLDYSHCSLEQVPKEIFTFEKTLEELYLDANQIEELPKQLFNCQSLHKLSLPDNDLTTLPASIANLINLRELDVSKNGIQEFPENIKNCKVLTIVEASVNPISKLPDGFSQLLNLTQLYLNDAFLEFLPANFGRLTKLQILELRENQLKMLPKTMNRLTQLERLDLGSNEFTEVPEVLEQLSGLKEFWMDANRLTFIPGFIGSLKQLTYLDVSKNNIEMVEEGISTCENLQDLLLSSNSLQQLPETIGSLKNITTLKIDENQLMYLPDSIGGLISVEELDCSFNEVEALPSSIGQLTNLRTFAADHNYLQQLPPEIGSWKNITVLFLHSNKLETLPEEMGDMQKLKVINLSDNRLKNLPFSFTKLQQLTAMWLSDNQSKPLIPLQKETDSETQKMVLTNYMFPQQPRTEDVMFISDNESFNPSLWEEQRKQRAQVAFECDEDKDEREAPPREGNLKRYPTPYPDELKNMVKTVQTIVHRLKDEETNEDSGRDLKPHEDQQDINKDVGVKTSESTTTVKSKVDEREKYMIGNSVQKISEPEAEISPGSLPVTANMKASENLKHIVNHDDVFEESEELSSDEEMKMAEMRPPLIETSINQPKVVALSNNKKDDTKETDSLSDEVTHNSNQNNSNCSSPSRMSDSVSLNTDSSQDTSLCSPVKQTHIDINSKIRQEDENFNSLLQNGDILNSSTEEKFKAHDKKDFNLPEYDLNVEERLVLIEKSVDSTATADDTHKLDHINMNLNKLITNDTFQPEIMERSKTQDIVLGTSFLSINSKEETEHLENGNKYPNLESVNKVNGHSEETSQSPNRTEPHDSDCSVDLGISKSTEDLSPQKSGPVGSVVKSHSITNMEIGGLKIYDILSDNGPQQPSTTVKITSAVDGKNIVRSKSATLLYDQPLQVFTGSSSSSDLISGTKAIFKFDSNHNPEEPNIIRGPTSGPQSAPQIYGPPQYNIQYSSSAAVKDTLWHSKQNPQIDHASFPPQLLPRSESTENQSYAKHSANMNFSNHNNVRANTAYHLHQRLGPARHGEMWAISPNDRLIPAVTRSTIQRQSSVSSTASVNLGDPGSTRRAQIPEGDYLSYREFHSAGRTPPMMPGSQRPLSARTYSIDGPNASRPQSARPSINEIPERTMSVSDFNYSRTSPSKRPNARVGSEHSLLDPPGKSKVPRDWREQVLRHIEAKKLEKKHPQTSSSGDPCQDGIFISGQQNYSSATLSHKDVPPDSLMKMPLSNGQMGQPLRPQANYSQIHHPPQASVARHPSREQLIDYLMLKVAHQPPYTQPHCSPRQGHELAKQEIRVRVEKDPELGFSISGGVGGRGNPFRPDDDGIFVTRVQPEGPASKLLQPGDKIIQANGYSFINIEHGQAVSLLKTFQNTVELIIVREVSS

For `CSCC[C@H](NC(=O)[C@H](C)NC(=O)[C@H](CCCNC(=N)N)NC(=O)CNC(=O)[C@@H](NC(=O)[C@H](Cc1c[nH]c2ccccc12)NC(=O)[C@H](CCCNC(=N)N)NC(=O)CNC(=O)CCCC[C@@H]1SC[C@@H]2NC(=O)N[C@@H]21)[C@@H](C)O)C(=O)N[C@@H](CO)C(=O)N[C@@H](C)C(=O)N[C@@H](Cc1c[nH]c2ccccc12)C(=O)N[C@@H](CCCCN)C(=O)N1CCC[C@H]1C(=O)N[C@H](C(=O)N[C@@H](CCCNC(=N)N)C(=O)N[C@@H](CCCNC(=N)N)C(=O)N[C@@H](CCC(=O)O)C(=O)N[C@H](C(=O)N[C@@H](CCC(=O)O)C(=O)N[C@H](C(=O)O)C(C)C)[C@@H](C)O)[C@@H](C)O` [HPV E6 #35 (modified)] (Biotin-GRWTGRAMSAWKPTRRETEV-OH; C-terminus assumed), the Classification in assay [1] is recorded as 1 (A450 nm 0-1); in assay [2] it was 5 (A450 nm of 4 more than 2× repeated); in assay [3], 2 (A450 nm 1-2); in assay [4], 2 (A450 nm 1-2).
